Reference: publication PMC11519904, “Comprehensive Cell Biological Investigation of Cytochalasin B Derivatives with Distinct Activities on the Actin Network” (Journal of Natural Products, 2024)
Converted amounts (≈) assume the structure as drawn. Like-named read-outs stand apart in the source and are kept apart here.

Tests used:
[1] = test system: Mycobacterium smegmatis (ATCC 7000084); experiment: Serial dilution assay (MIC), M. smegmatis; type: cell-based; details: Mycolicibacterium smegmatis, ATCC7000084; growth inhibition at 24 h; read-out: minimum inhibitory concentration (MIC) against M. smegmatis
Method: Serial dilutions of compounds were prepared as triplicates in sterile U-bottom-shaped 96-well plates (Corning, USA). Mueller-Hinton broth (MHB) medium was used for bacteria, and YMG medium was used for filamentous fungi and yeasts. The selected organisms represent a broad spectrum of pathogens of clinical interest, as well as sensitive indicator strains (Gram-positive bacteria: Bacillus subtilis (DSM 10), Staphylococcus aureus (DSM 346), Mycobacterium smegmatis (ATCC 7000084); Gram-negative bacteria: Acinetobacter baumannii (DSM 30008), Chromobacterium violaceum (DSM 30191), Escherichia coli (DSM 1116), Pseudomonas aeruginosa (PA 14); fungi and yeast: Schizosaccharomyces pombe (DSM 70572), Pichia anomala (DSM 6766), Mucor hiemalis (DSM 2656), Candida albicans (DSM 1665), Rhodotorula glutinis (DSM 10134)).
The compounds were dissolved in MeOH (1 mg/mL), added to the bacterial suspension, and diluted to the final concentrations. The plate was incubated at 37 °C under static conditions. Growth inhibition was assessed at 24 h. MeOH was used as negative control. […]

[2] = test system: KB3.1 (human cervix carcinoma); experiment: Cytotoxicity assay (MTT), KB3.1; type: cell-based; details: 5 days of incubation, MTT, read-out: IC50 KB3.1
Method: The cytotoxicity assay was implemented in 96-well flat-bottom microtiter plates following a reported procedure.[21],[22],[33] The mammalian cell lines L929 (mouse fibroblast) and KB3.1 (human cervix carcinoma) were cultivated at 37 °C and 10% CO2 in Dulbecco’s modified minimum essential medium (DMEM, Life Technologies, Carlsbad, CA, USA) supplemented with 10% fetal bovine serum (FBS, Life Technologies). The microtiter plate was filled with 120 μL of suspended cells (50,000/mL), and 60 μL of a serial dilution of the test compound was added. After 5 days of incubation, growth inhibition (IC50) was determined by a colorimetric tetrazolium dye MTT assay.[34] The compounds were dissolved in MeOH (1 mg/mL), MeOH was used as negative control, and epothilone[35] (1 mg/mL) was used as positive control.

SMILES | MIC [1] [µg/mL] | IC50 [2] [µM] | IC50 ([2]; Homo sapiens, KB 3-1, 120 h) [µM]
C=C1[C@@H](C)[C@H]2[C@H](Cc3ccccc3)NC(=O)[C@]23OC(=O)/C=C/[C@H](O)CCC[C@@H](C)C/C=C/[C@H]3[C@@H]1OC(C)=O [Compound 3, 7-O-acetyl cytochalasin B] | 66.6 (≈ 128 µM) |  | 
C=C1[C@@H](C)[C@H]2[C@H](Cc3ccccc3)N(C(C)=O)C(=O)[C@]23OC(=O)/C=C/[C@H](O)CCC[C@@H](C)C/C=C/[C@H]3[C@@H]1O [Compound 5, N-acetyl cytochalasin B] |  | 7.9 | 4.8 to 9.4
